BindingDB's records for doi:10.7270/Q2KH0KWR (Burnham Center For Chemical Genomics, 2012)

These compounds were tested against T1, Tyrosine-protein phosphatase non-receptor type 5 (Homo sapiens, UniProt P54829) (assay: STEP phosphatase inhibitor potency, dose response, orthogonal assay for STEP inhibitor project, biochemical, colorimetric absorbance (AID 624207)). Conditions: not given.
T1 sequence (P54829 whole entry): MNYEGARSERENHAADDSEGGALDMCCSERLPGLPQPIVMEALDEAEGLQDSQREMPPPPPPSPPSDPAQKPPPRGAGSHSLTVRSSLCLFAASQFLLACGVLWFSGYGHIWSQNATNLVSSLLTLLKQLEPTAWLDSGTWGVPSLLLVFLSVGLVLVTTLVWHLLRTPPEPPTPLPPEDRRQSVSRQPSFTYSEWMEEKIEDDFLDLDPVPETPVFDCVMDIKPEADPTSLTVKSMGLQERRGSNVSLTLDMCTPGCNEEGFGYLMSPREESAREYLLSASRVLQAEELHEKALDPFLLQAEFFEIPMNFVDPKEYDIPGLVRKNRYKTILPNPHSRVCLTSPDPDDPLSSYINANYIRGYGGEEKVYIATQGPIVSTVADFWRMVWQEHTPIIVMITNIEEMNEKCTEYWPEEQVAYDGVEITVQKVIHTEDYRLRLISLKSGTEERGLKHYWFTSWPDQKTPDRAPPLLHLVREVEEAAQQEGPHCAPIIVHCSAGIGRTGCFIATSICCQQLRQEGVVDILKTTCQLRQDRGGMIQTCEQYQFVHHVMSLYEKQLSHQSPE

| Structure (SMILES) | IC50 |
| --- | --- |
| Cc1ccc(Cn2cc(C=O)c(-c3ccc(C)cc3)n2)cc1 [3-(4-methylphenyl)-1-[(4-methylphenyl)methyl]-4-pyrazolecarboxaldehyde] | > 80 µM |
| Cc1c(CCC(=O)O)c(=O)oc2c(C)c(OCc3ccccc3Cl)ccc12 [3-[7-[(2-chlorophenyl)methoxy]-4,8-dimethyl-2-oxochromen-3-yl]propanoic acid] | 6.4 µM |
| Cc1c(CCC(=O)O)c(=O)oc2c(C)c(OCc3cc4c(cc3Cl)OCO4)ccc12 [3-[7-[(6-chloranyl-1,3-benzodioxol-5-yl)methoxy]-4,8-dimethyl-2-oxidanylidene-chromen-3-yl]propanoic acid] | > 80 µM |
| O=C(CSc1nc(-c2ccc(F)cc2)nc2c1Cc1ccccc1O2)Nc1cccc(C(=O)O)c1 [3-[({[2-(4-fluorophenyl)-5H-chromeno[2,3-d]pyrimidin-4-yl]thio}acetyl)amino]benzoic acid] | 1.55 µM |
| O=C1Nc2ccc3sc4ccccc4c3c2C1=O [3H-6-Thia-3-aza-cyclopenta[c]fluorene-1,2-dione] | > 80 µM |
| COc1cc(/C=C2/C(=O)NN(c3cccc(C)c3)C2=O)cc([N+](=O)[O-])c1O [4-(4-hydroxy-3-methoxy-5-nitrobenzylidene)-1-(3-methylphenyl)-3,5-pyrazolidinedione] | > 80 µM |
| CN(C)c1ccc(C(=O)OCC(=O)Nc2ccc(S(N)(=O)=O)cc2)cc1 [4-(dimethylamino)benzoic acid [2-oxo-2-(4-sulfamoylanilino)ethyl] ester] | 7.9 µM |
| Clc1ccc(Cl)c(-c2nc(-c3ccncc3)no2)c1 [4-[5-(2,5-dichlorophenyl)-1,2,4-oxadiazol-3-yl]pyridine] | > 80 µM |
| S=c1[nH]nc(-c2cccnc2)n1N=Cc1ccc(Br)s1 [4-[(E)-(5-bromothiophen-2-yl)methylideneamino]-3-pyridin-3-yl-1H-1,2,4-triazole-5-thione] | > 80 µM |
| CCOC(=O)CN1C(=O)S/C(=C/c2ccc(OCc3ccc(C(=O)O)cc3)cc2)C1=O [4-[[4-[(E)-[3-(2-ethoxy-2-oxoethyl)-2,4-dioxo-5-thiazolidinylidene]methyl]phenoxy]methyl]benzoic acid] | > 80 µM |
| O=[N+]([O-])c1ccc(O)c(Nc2ncnc3ccccc23)c1 [4-nitro-2-(4-quinazolinylamino)phenol] | > 80 µM |
| CCc1c(C)[nH]n(-c2ccc(Oc3ccccc3)c(S(=O)(=O)O)c2)c1=O [5-(4-ethyl-5-methyl-3-oxo-1H-pyrazol-2-yl)-2-phenoxybenzenesulfonic acid] | > 80 µM |
| Cc1ccc(S(=O)(=O)Cc2ccc(C(=O)O)o2)cc1 [5-(tosylmethyl)-2-furoic acid] | > 80 µM |
| N#C/C(=C\c1ccc(OC(=O)c2ccc(Cl)s2)cc1)c1nc2ccccc2[nH]1 [5-chloro-2-thiophenecarboxylic acid [4-[(E)-2-(1H-benzimidazol-2-yl)-2-cyanoethenyl]phenyl] ester] | > 80 µM |
| NC(=O)c1cc2ccccc2o/c1=N\NC(=O)c1ccccc1O [(2Z)-2-[[(2-hydroxyphenyl)-oxomethyl]hydrazinylidene]-1-benzopyran-3-carboxamide] | 13.7 µM |
| C=c1c(O)c(O)c(=C2C(=O)C(=O)C(C)C(=O)C2=O)c(O)c1O (stereo not given) [(3E)-5-hydroxy-6-methyl-3-(2,3,5-trihydroxy-4-methyl-6-oxo-1-cyclohexa-2,4-dienylidene)cyclohex-5-ene-1,2,4-trione] | > 80 µM |
| O=C1C(=O)N(CCCO)C(c2ccc(Br)cc2)C1C(=O)c1ccc(Br)cc1 (stereo not given) [(4E)-5-(4-bromophenyl)-4-[(4-bromophenyl)-oxidanyl-methylidene]-1-(3-oxidanylpropyl)pyrrolidine-2,3-dione] | 41.5 µM |
| COc1cc(C(=S)N2CCCCC2)ccc1O [(4Z)-2-methoxy-4-[piperidin-1-yl(sulfanyl)methylidene]cyclohexa-2,5-dien-1-one] | 15.5 µM |
| COc1cccc(N2[C@@H](CC(=O)O)c3ccc(/C=C/C(=O)O)cc3S2(=O)=O)c1 [(E)-3-[(3S)-3-(carboxymethyl)-2-(3-methoxyphenyl)-1,1-dioxo-3H-1,2-benzothiazol-6-yl]prop-2-enoic acid] | > 80 µM |

| Structure (SMILES) | IC50 |
| --- | --- |
| Cc1nnc2sc(-c3ccc(NC(=O)c4ccc(-c5ccc(Cl)cc5Cl)o4)cc3)nn12 [MLS000050448] | > 80 µM |
| CCc1ccc(OCC(=O)Nc2ccc(-c3nc4ccccc4o3)c(O)c2)cc1 [MLS000109444] | > 80 µM |
| C=CC1=C(C(=O)O)N2C(=O)C(NC(=O)Cc3ccccc3)C2SC1 (stereo not given) [MLS000123928] | > 80 µM |
| S=C1N=C2C(=C3SCCS3)CCCC2C(c2ccccc2)N1 (stereo not given) [MLS000516376] | 72.8 µM |
| CCN(CC)P(=O)(NC(=O)C(Cl)(Cl)Cl)N(CC)CC [MLS000564159] | 77.5 µM |
| CCOc1ccc(C(=O)Nc2cc(-c3nc4ccccc4[nH]3)ccc2Cl)cc1[N+](=O)[O-] [MLS000574482] | > 80 µM |
| COCCN(C(=S)Nc1c(C)cc(C)cc1C)C(C)c1cccnc1 (stereo not given) [MLS000584539] | > 80 µM |
| O=C(N/N=C/c1ccc(Cl)c([N+](=O)[O-])c1)c1ccc2c(c1)OCCO2 [MLS000587937] | 15.7 µM |
| NS(=O)(=O)c1ccc(N/C(S)=N\CCc2ccccc2)cc1 [MLS000621468] | > 80 µM |
| CCN1CCN(C(=S)c2ccc(O)cc2)CC1 [MLS000621546] | 33.8 µM |
| CN1CCN(C(=S)C(=O)Nc2ccc(Br)cc2)CC1 [MLS000665240] | 12.6 µM |
| COC(=O)Nc1sc2c(c1C(N)=O)CCC(C)C2 (stereo not given) [MLS000683996] | 13.3 µM |
| O=C(N/N=C/c1coc2ccccc2c1=O)c1cc2ccccc2o1 [MLS000700471] | > 80 µM |
| O=C(COc1ccc(/C=N/NC(=O)c2ccc(O)cc2)cc1)Nc1cccc([N+](=O)[O-])c1 [MLS000714465] | 20 µM |
| COc1ccc(NC(=S)N(CCCN2CCC(C)CC2)Cc2cccs2)cc1Cl [MLS000729725] | > 80 µM |
| COc1ccc2cc3c(N)nn(C(=O)c4cccc(F)c4)c3nc2c1 [MLS000731294] | > 80 µM |
| O=C(Nc1cc([N+](=O)[O-])ccc1O)c1cccc(C(=O)Nc2cc([N+](=O)[O-])ccc2O)c1 [MLS001008494] | 7.05 µM |
| CC(=O)N1CCOc2ccc(S(=O)(=O)NCc3ccc(F)cc3)cc21 [MLS001117284] | > 80 µM |
| CC(C(=O)Nc1ccc(O)cc1C(=O)O)N1C(=O)/C(=C\c2cccs2)SC1=S (stereo not given) [MLS001157883] | 15.7 µM |

Same assay, conditions: inactive by the depositor's call

| Structure (SMILES) | IC50 |
| --- | --- |
| O=C(N/N=C/c1cccnc1)c1ccc(NC(=O)c2cccc(Cl)c2)cc1 [3-chloro-N-[4-[oxo-[(2E)-2-(3-pyridinylmethylidene)hydrazinyl]methyl]phenyl]benzamide] | 45.6 µM |
| Cn1c(=O)[nH]c(=O)c2c1nc(SCCN1CCCCC1)n2CCCc1ccccc1 [3-methyl-7-(3-phenylpropyl)-8-[2-(1-piperidinyl)ethylthio]purine-2,6-dione] | 60.5 µM |
| O=C(N/N=C/c1cccc([N+](=O)[O-])c1)c1ccc(Br)cc1 [4-bromo-N-[(E)-(3-nitrophenyl)methylideneamino]benzamide] | 21.5 µM |
| O=C(N/N=C/c1ccc(Br)cc1)c1ccc(Br)o1 [5-bromanyl-N-[(E)-(4-bromophenyl)methylideneamino]furan-2-carboxamide] | 24.1 µM |
| OCCN1CCN(C(=S)c2ccc(Cl)c(Cl)c2)CC1 [(3,4-dichlorophenyl)-[4-(2-hydroxyethyl)-1-piperazinyl]methanethione] | 22 µM |
| S=C(c1ccc(Br)cc1)N1CCN(Cc2ccccc2)CC1 [(4-bromophenyl)-[4-(phenylmethyl)-1-piperazinyl]methanethione] | 54.9 µM |
| CCOc1ccc(C(=S)N2CCN(C)CC2)cc1 [(4-ethoxyphenyl)-(4-methyl-1-piperazinyl)methanethione] | 44.3 µM |
| Cc1ccc(C(=S)N2CCN(Cc3ccccc3)CC2)s1 [(5-methyl-2-thiophenyl)-[4-(phenylmethyl)-1-piperazinyl]methanethione] | 32 µM |
| O=C(NCCCn1ccnc1)C(Cc1ccccc1)N1C(=O)c2ccccc2C1=O (stereo not given) [MLS000040026] | 72.3 µM |
| COc1ccccc1NS(=O)(=O)c1cc(NC(=S)NCCN2CCOCC2)ccc1N1CCOCC1 [MLS000409155] | 29.7 µM |
| O=C(N/N=C/c1ccc(OC(=O)c2cccs2)cc1)c1cccc(F)c1 [MLS000576933] | 25.5 µM |
| OCCN1CCN(C(=S)c2ccc(Br)cc2)CC1 [MLS000577024] | 57 µM |
| CCN1CCN(C(=S)c2ccc(Cl)cc2)CC1 [MLS000594090] | 25.5 µM |
| CN(C)c1ccc(C(=S)N2CCN(Cc3ccccc3)CC2)cc1 [MLS000679877] | 56.9 µM |
| N#CNc1nc(O)cc(=O)[nH]1 [MLS000737363] | 40 µM |
| Cc1cc(C)c2nc(-c3ccccn3)cc(C(=O)Nc3ccc(S(=O)(=O)Nc4onc(C)c4C)cc3)c2c1 [MLS000862518] | 42 µM |
| CC(C)(C)C(=O)Nc1ccc(C(=O)Nc2cccc(Oc3ccc(C(=O)O)c(C(=O)O)c3)c2)cc1 [MLS001181252] | 25.2 µM |
| NS(=O)(=O)c1ccc(NC(=S)N2CCC(Cc3ccccc3)CC2)cc1 [MLS001196239] | 76 µM |
| Cc1c(CC(=O)O)c(=O)oc2c(C)c(OCc3ccc(F)cc3Cl)ccc12 [MLS001213411] | 23.8 µM |
| Cc1c(CC(=O)NCCCCCC(=O)O)c(=O)oc2c(C)c3oc4c(c3cc12)CCCC4 [MLS001214831] | 32.1 µM |
| CCOc1ccc(/C=N/NC(=O)c2cc3c(OC)cccc3[nH]2)cc1 [MLS001216500] | 28.5 µM |
| CC(=NNC(=O)c1ccccc1O)c1ccc(NC(=O)Cc2ccccc2)cc1 [MLS001224813] | 29.4 µM |
